Test results published in US8507547B2, “Anti-fatigue agents and oral compositions containing andrographolide as active ingredient” (Suntory Holdings Limited, priority 2007, dated 2013).

Legend:
[1] = system: Sprague Dawley rats; test: Forced exercise test (amount of spontaneous exercise after treadmill exercise stress); type: in vivo; conditions: 2 mg per kilogram of body weight orally after 3 hours treadmill exercise stress; FIG. 3
Protocol: The third test is measurement of an amount of spontaneous exercise in a forced exercise test. This is described in detail below in Example 3. Rats were forced to exercise on a treadmill, and thereafter the test substance was administered. Then, the amount of spontaneous exercise of the animal was measured. Since this animal model is an exercise fatigue (physical fatigue) model, anti-fatigue action against physical fatigue would be confirmed if increase in the amount of spontaneous exercise is observed after the administration of the test substance. Such anti-fatigue action is considered to be involved in improving endurance and exercise performance.
Six-week-old male Sprague Dawley rats were used as a test animal. On the day before the test was started, the rats were divided into five groups each having eight rats, and all of the rats were deprived of food since the morning of the test day. […] Thereafter, the rats were moved into a spontaneous exercise measuring device having an infrared sensor (Supermex, Muromachi Kikai Co., Ltd.), and an amount of spontaneous exercise was measured during a period of 0-2 hours (exploration) and a period of 2-14 hours (dark period). […]

[2] = system: Balb/c mice; test: Water-immersion and sleep-disturbance test (weight-loaded forced swimming test, swimming time); type: in vivo
Description: The first test is measurement of a swimming time in a water-immersion and sleep-disturbance test. This is described in detail below in Example 1. Mice raised in an environment, such as a water-immersed environment, where they were not allowed to take enough sleep or to take a comfortable posture so that they could take neither physical nor mental rest were weighted and forced to swim, and a length of time that passed until noses of the mice sank under the water for a period of 10 seconds or longer was measured (weight-loaded forced swimming test) to determine their fatigue level.
That is to say, since this animal model is a physical and mental fatigue model as well as an organ fatigue model described below, anti-fatigue action against physical and/or mental fatigue would be confirmed if the swimming time becomes longer as a result of administration of the test substance. Such anti-fatigue action is considered to be involved in reduction in fatigue stress, maintenance of physical energy under fatigue conditions (enhancement of body strength), improvement in endurance, and the like.
Effect of andrographolide on fatigue from water immersion and sleep disturbance was examined using a partially modified method of Tanaka et al. (Neuroscience Let. 352, 159-162, 2003). […] Four out of the five groups were reared as water-immersed groups; the groups were kept in cages in such a manner that each of the cages was filled with tap water at 23° C. with a water depth of 7 mm, instead of a floor covering, so that the mice were immersed in water and deprived of sleep. The mice were immersed in water for two days, andrographolide (Aldrich corp., purity 98%) was forcibly administered orally to the mice with doses of 0.5, 2, 8 mg per kilogram of body weight once daily during the two days (water-immersed and andrographolide-administered group). As a control group, one of the groups was immersed in water for two days, and distilled water was forcibly given orally to the group once daily during the two days (water-immersed control group). The remaining one of the five groups was reared as a normally-reared group; this group was kept in a cage with a normal floor covering, and distilled water was forcibly given orally to the group once daily during the two-day rearing (normally-reared control group). After the two days, each of the mice was provided with a weight corresponding to 8% of its body weight, which weight was attached to its tale, and then the mice were forced to swim in a water tank having a diameter of 18 cm and filled with water having a depth of 30 cm. A length of time that passed until the mice sank under water for a period of 10 seconds or longer (swimming time) was measured (weight-loaded forced swimming test).
The swimming time of the mice of the water-immersed group was shorter than that of the mice of the normally-reared group because of fatigue from the water immersion and sleep disturbance. The effect of andrographolide on the fatigue from the water immersion and sleep disturbance was examined by determining recovery of a reduction in the swimming time of the mice of the water-immersed group after the administration of andrographolide.
In accordance with the procedure described in Example 1, effect on water-immersion and sleep-disturbance fatigue was examined in a case in which andrographolide was administered alone to mice, a case in which alpha-lipoic acid was administered alone to mice, and a case in which a combination of andrographolide and alpha-lipoic acid was administered to mice. Eight-week-old male Balb/c mice were used as a test animal. […] Four out of the five groups served as water-immersed groups, and each of the groups was kept in a cage filled with tap water at 23° C. with a water depth of 7 mm, instead of a floor covering, so that the mice were immersed in water and deprived of sleep. […]

C=C1CC[C@@H]2[C@](C)(CO)[C@H](O)CC[C@@]2(C)[C@@H]1C/C=C1/C(=O)OC[C@H]1O [andrographolide]
amount of spontaneous exercise [1]: increase in the amount of spontaneous exercise was observed
reduction in the swimming time ([2]; 0.25 mg per kilogram of body weight orally once daily during two days of water immersion, FIG. 1(B)): prevented reduction in the swimming time
reduction in the swimming time ([2]; 200 mg per kilogram of body weight orally once daily during two days of water immersion, FIG. 1(C)): prevented reduction in the swimming time
toxicity to the mice ([2]; 200 mg per kilogram of body weight orally once daily for two days): no toxicity to the mice was observed
reduction in the swimming time ([2]; 0.5, 2, 8 mg per kilogram of body weight orally once daily during two days of water immersion, FIG. 1(A)): prevented in a dose-dependent manner
shortening of the swimming time ([2]; Example 5, FIG. 5, andrographolide 0.25 mg/kg (5a), alpha-lipoic acid 50 mg/kg (5b) or both (5c), orally once daily during two days of water immersion): prevented from shortening
increase rate of the swimming time ([2]; Example 5, swimming time of normally-reared group minus water-immersed control group = 100%, andrographolide 0.25 mg/kg, alpha-lipoic acid 50 mg/kg, alone or combined): 5%
